# Data from article PMC4900628, “Critical Evaluation of P2X7 Receptor Antagonists in Selected Seizure Models” (PLoS ONE, 2016).
# How the values were obtained:
# P2X7R = target: T1, P2X7R (Rattus norvegicus, UniProt Q64663); experiment: P2X7R brain occupancy, ex vivo receptor binding autoradiography; type: in vivo; settings: sc, rats, 15 mg/kg s.c., hippocampal slices, [3H] JNJ-54232334 autoradiography
# T1 construct: from tissue; host or cells: rat (Wistar) brain, hippocampal slices
# T1 sequence (Q64663 1-595): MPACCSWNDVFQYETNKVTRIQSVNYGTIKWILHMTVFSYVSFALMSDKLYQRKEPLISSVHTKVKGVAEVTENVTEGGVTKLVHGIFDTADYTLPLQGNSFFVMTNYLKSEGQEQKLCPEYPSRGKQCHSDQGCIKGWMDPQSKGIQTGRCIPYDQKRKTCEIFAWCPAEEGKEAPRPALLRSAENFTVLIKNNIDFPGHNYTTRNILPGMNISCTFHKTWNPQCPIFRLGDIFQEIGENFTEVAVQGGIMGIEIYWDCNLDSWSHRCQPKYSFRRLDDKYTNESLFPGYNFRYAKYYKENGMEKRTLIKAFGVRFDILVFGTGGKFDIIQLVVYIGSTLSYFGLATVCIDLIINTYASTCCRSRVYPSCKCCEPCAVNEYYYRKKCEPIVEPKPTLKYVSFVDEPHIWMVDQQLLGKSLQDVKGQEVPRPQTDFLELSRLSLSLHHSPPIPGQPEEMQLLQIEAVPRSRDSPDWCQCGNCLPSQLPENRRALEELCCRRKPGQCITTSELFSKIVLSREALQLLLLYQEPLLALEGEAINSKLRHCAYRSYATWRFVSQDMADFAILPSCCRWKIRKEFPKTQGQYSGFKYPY
# Method: Plasma and brain samples from experiments with JNJ-47965567 were quantified at the Neuroscience Therapeutic Area, Janssen Research & Development (San Diego, CA, USA) using an API 4000 MS/MS system (Applied Biosystems, Concord, ON, Canada) interfaced with an Agilent 1100 Series HPLC (Agilent Technologies). To measure the percentage of P2X7R brain occupancy of JNJ-47965567, ex vivo receptor binding autography was performed as recently described. Briefly, 20 μm-thick hippocampal slices were prepared and P2X7R radioligand binding was determined at room temperature with 10 nM [^3H] JNJ-54232334 (Janssen) in 50 mM Tris-HCl incubation buffer containing 0.1% bovine serum albumin. The non-specific binding was measured using adjacent sections incubated in the additional presence of 100 μM A-740003 (Tocris Bioscience, Bristol UK). Sections were incubated for 1 min, washed in ice-cold incubation buffer (4 times, 5 min each), followed by two dips in deionized water and rapidly dry under a stream of cold air before acquisition. Quantitative analysis was performed using the Tracer ß-Imager with M3 Vision software (Biospace Lab, Paris, France). Ex vivo receptor labelling was expressed as the percentage of receptor labelling in corresponding brain areas of vehicle-treated control animals.
# [1] = test system: electroshock-induced tonic (hindlimb extension) seizures; experiment: Maximal electroshock seizure threshold test (MES-T); type: in vivo; settings: mice
# Method: The stimulus train was applied via ear-clip electrodes (sinusoidal pulses 4-14 mA, 50 Hz, 0.2 s duration) by means of a constant current stimulator (rodent-shocker type 221; Hugo Sachs Elektronik, March-Hugstetten, Germany). […] Groups of 20 mice were used. Control groups, which received the corresponding vehicle, were tested together with the compound-treated groups on the same experimental day. Current intensity-effect curves were obtained on the basis of the number of animals responding with the endpoint at the corresponding current value. The results are calculated as convulsive current fifty (CC50) values (current intensity in mA, necessary to produce tonic hindlimb extension in 50% of the mice tested) including the confidence limits for 95% probability. […] Chemicals, Toronto, Canada) was slowly added. The pH was adjusted with 1N NaOH (similar amount of NaOH as HCl), all with continuous stirring. […] The drug solutions or suspensions were prepared immediately before use; all doses refer to the salts. Animals in the control group received equivalent volumes of the vehicle (in mice always 10 ml/kg, in rats 1 ml/kg [JNJ], 3 ml/kg [AFC] or 4 ml/kg [BBG, TIIAS], depending on the solubility of the different compounds). Doses and peak time effects were selected on the basis of effective doses from corresponding in vivo studies in the literature: BBG (e.g.), tanshinone IIA (e.g.) and from manufacturer's experimental data: AFC, JNJ (see, [80]). Data were analysed using SigmaPlot (vers. 12.0, Systat Software, Erkrath, Germany) and SPSS (IBM SPSS Statistics 20, […], Germany), respectively. Results are expressed as mean ± SEM. […] In the PTZ-T, the number of animals in the group with clonic seizures and the latency time were analysed using Fisher's exact probability test and the Mann-Whitney rank sum test, respectively. […] In the PTZ-kindling model, the mean seizure stage within a group was calculated in relation to the number of PTZ-injections. […] In fully kindled rats, the calculated mean seizure stage within a group after vehicle- and compound-treatment were compared using a paired t-test. […]
smiles,measurement,setting,value
"O=C(NCC1(N2CCN(c3ccccc3)CC2)CCOCC1)c1cccnc1Sc1ccccc1 [JNJ-47965567, N-[[4-(4-phenyl-piperazin-1-yl)tetrahydro-2H-pyran-4-yl]-methyl]-2-(phenyl-thio) nicotinamide]",receptor occupancy at 15 mg/kg,P2X7R,98 ± 2%
same,seizure threshold in MES-T at the higher doses,"[1]; AFC 50 mg/kg, JNJ 30 mg/kg, alone","small, but non-significant increase in seizure threshold"
same,anticonvulsant effectiveness of co-administration with carbamazepine compared to carbamazepine alone (MES-T),"[1]; AFC 25 and 50 mg/kg s.c. or JNJ 15 and 30 mg/kg s.c. 30 min before, with carbamazepine 7 mg/kg i.p., P < 0.01",significantly increased the anticonvulsant effectiveness
